Laboratory results from publication PMC8157459, “Exploring the anti-HIV-1 reverse transcriptase, anti-inflammatory, anti-cancer activities and cytotoxicity of two fermented commercial herbal concoctions sold in Limpopo Province of South Africa” (BMC Complementary Medicine and Therapies, 2021).

Biological target: T1, human sPLA2 (Type V) (Homo sapiens, UniProt P39877)
T1 construct: gene PLA2G5
T1 sequence (P39877 21-138): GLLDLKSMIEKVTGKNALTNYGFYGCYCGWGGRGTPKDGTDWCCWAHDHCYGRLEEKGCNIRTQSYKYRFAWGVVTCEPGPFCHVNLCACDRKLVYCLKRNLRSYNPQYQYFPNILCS
Test: diheptanoyl thio-PC hydrolysis, DTNB colorimetric
Format: biochemical
Details: read-out: sPLA2 (IC50 μg/mL) (converted)
Text: diheptanoyl thio-PC hydrolysis, DTNB colorimetric on human sPLA2 (Type V)

- IC50: 2070 nM
SMILES: CCCCCCCCCCCCCCCCSC[C@H](COP(=O)([O-])OCC[N+](C)(C)C)NC(=O)CCCCCCCCCCCCCCC [Thioetheramide-PC]
